Tested on: murine middle cerebral artery occlusion-reperfusion (MCAO-RP) model of transient focal ischemia
Experiment: Middle cerebral artery occlusion-reperfusion (MCAO-RP), 90 min MCAO, misoprostol
Type: in vivo, mouse
Conditions: p<0.05
Protocol: Focal cerebral ischemia was induced by 90 minutes of reversible right middle cerebral artery occlusion (MCAO) under isofluorane anesthesia followed by 22.5 hours or 72 hours of reperfusion and terminal histopathology, as previously described (McCullough et al., 2004). […] Mice were given 3 subcutaneous injections of either vehicle (hydroxypropyl-methyl cellulose; HPMC) or 1 mg/kg misoprostol in HPMC (1:100 misoprostol:HPMC; Pfizer, Groton, Conn.) (Best et al., 1995) either at onset of MCAO or 2 hours after MCAO, followed by two subsequent doses 6 and 12 hours later. In the first experiment, misoprostol was given at onset of MCAO, with the two subsequent injections given at 6 hours and at 12 hours post MCAO, and brains were analyzed 22.5 hours later. In the second experiment, treatment with the initial dose of misoprostol was delayed two hours after the onset of MCAO, and two subsequent doses were then administered at 8 hours and 14 hours after MCAO and brains were analyzed at 22.5 hours later. In the third experiment, a delayed time point was tested, and misoprostol was given 2 hours after MCAO and again at 6 and 12 hours; brains were examined at 72 hours. […] A fifth cohort of EP3−/− and +/+ mice underwent treatment with either vehicle or misoprostol at MCAO, with subsequent administration of misoprostol or vehicle at 6 and 12 hours post MCAO and brain examination 22.5 hours later.

In the case of `CCCCC(C)(O)C/C=C/[C@H]1[C@H](O)CC(=O)[C@@H]1CCCCCCC(=O)OC` (mixture of isomers) [misoprostol], the Neurological scores (1 mg/kg s.c. 2 h after MCAO, again at 6 and 12 h, 72 h, comparison value 2.6+/−0.24) is reported as 1.0+/−0.22, the Neurological scores (1 mg/kg s.c. 2 h after MCAO, then at 8 and 14 h, 24 h, comparison value 2.6+/−0.3) is reported as 1.7+/−0.3 and the Neurological scores (1 mg/kg s.c. at onset of 90 min MCAO, then at 6 and 12 h, 24 h, comparison value 2.4+/−0.2) is reported as 1.8+/−0.2.
